Measured values published in US20020143047A1, “Methods for treating indomethacin responsive headaches” (priority 2001, published 2002).

Tested on: patient suffering from hemicrania continua and ulceritive colitis
Test: Clinical treatment of a patient with hemicrania continua: topical indomethacin patch, and prior oral indomethacin
Assay type: in vivo, human
Procedure: Typically, the symptom ameliorated by the subject methods is pain associated with the syndrome being treated. In many embodiments, the intensity of pain associated with the syndrome is at least reduced, if not eliminated. Reduction in pain intensity is evaluated according to the protocol described at pages 161-176, and particularly page 172, of “Guidelines for Controlled Trials of Drugs in Cluster Headache,” published by the International Headache Society Committee on Clinical Trials in Cluster Headache. The magnitude of reduction in pain intensity is generally at least about 10%, usually at least about 25% and more usually at least about 50%, where magnitude of reduction may be as high as 75%, 80%, 95% or higher, including a complete cessation of pain, as determined by the assay described above.
The topical formulation described in I, above, was employed to treat a patient suffering from hemicrania continua and ulceritive colitis. The patient suffered from a six-year history of constant right-sided hemicranial pain of mild to moderate severity. Superimposed exacerbations of more intense pain occurred twice weekly and would last up to twelve hours. These painful exacerbations were associated with ipsilateral ptosis, conjunctival injection and lacrimation.
The patient was then treated with the topical application of indomethacin described in I, above, by applying the topical application to the site of maximal pain, i.e. the right forehead and temple. […] The patient was then instructed to reapply the patch twice daily, at twelve hour intervals. […] This was a favorable result compared with other forms of treatment that the patient had previously employed, whereas despite appropriate therapy, the patient's other medical condition worsened in response to oral administration of indomethacin.

[1] = prior treatment, 25 mg, three times daily

COc1ccc2c(c1)c(CC(=O)O)c(C)n2C(=O)c1ccc(Cl)cc1 [indomethacin, Indomethacin]
effect on gastrointestinal symptoms (decreased dosage): continued to aggravate the gastrointestinal symptoms | effect on headache syndrome (decreased dosage): did not abolish the headache syndrome | effect on pain [1]: complete resolution of pain | effect on patient's ulcerative colitis [1]: significant worsening
